Measurements taken from US8299046B2, “Synthetic triterpenoids and tricyclic-bis-enones for use in stimulating bone and cartilage growth” (Trustees of Dartmouth College, priority 2006, dated 2012).

Legend:
[1] = test system: CD11b expression in U937 cells; experiment: CD11b expression in U937 cells; type: cell-based, human
iNOS in RAW cells = iNOS in RAW cells stimulated with interferon-γ; type: cell-based
[2] = test system: U937 human leukemia cells; experiment: Proliferation of U937 leukemia cells; type: cell-based
heme oxygenase-1 [3] = experiment: In vivo assay of heme oxygenase-1 induction
[4] = test system: RMPI 8226 human myeloma cells; experiment: Proliferation of RMPI 8226 myeloma cells; type: cell-based
RAW cells = experiment: Inhibition of NO production in RAW cells; type: cell-based
[5] = test system: heme oxygenase-1 in U937 cells; experiment: Heme oxygenase-1 induction in U937 cells; type: cell-based, human
[6] = test system: MCF-7 breast cancer cell lines; conditions: Honda et al., 2003; cited from earlier work
[7] = test system: SZP synthesis in superficial zone articular chondrocytes; experiment: Bovine calf stifle joint SZP assay; type: cell-based; conditions: for SZP synthesis at lower concentrations: 0.01 to 1 nM; for SZP synthesis at higher concentrations / SZP synthesis at higher concentrations with concurrent TGF-β1: 100-1000 nM; for SZP synthesis at higher concentrations: Day 3 culture media; for SZP synthesis at higher concentrations with concurrent TGF-β1: concurrent TGF-β1 (4 pM)
Description: Bovine calf stifle joint SZP assay. Bovine calf stifle joints were dissected under aseptic conditions. The superficial zone of articular cartilage of femoral condyles (approximately 100 μm thickness) was harvested using a dermatome. The cartilage slices were digested with 0.2% collagenase P in culture medium. Isolated chondrocytes were plated in monolayer at a density of 1×10^5 cells/well (approximately 2.5×10^4 cells/cm^2) in 12-well culture plates and incubated at 37° C. in a moist atmosphere of 5% carbon dioxide and 95% air. Chondrocytes were cultured in D-MEM/F-12 containing 10% fetal bovine serum over night, and then the media were changed in serum-free D-MEM/F-12 supplemented with ITSL (insulin, transferrin, selenious acid, and linoleic acid). Both media contain 100 U/ml penicillin, 100 μg/ml streptomycin, 50 μg/ml ascorbate-2-phosphate, and 0.1% bovine serum albumin. After changing the media with serum into the serum-free chemically defined media, various concentration of synthetic triterpenoids were added into the cell culture. As most of SZP is secreted into the culture medium, supernatants were harvested as samples and the SZP synthesis was analyzed by SDS-PAGE and Western blotting using a monoclonal antibody S6.79, obtained from Rush Medical College, Chicago, Ill. SZP accumulation into the culture medium was also quantified by ELISA using purified SZP as standard. The accumulation of SZP into the culture media increased in a time-dependent manner (Day 1<Day 2<Day 3). Therefore the culture of media of Day 3 was used for all the studies.

[8] = test system: neonatal murine calvarial bones; experiment: Neonatal murine calvarial bone formation assay; type: cell-based, ICR Swiss mice; conditions: for alkaline phosphatase in the calvarial culture media: 4 and 7 days (FIGS. 2, 5, 8, 11); for cartilage formation: calvarial cultures, 7 days (FIGS. 3, 6, 9, 12); for new bone formation: calvarial organ culture, 7 days, 40, 200, 1000 nM (FIGS. 1, 4, 10)
Description: Neonatal murine calvarial bone formation assay. The technique for studying organ cultures of neonatal murine calvarial bones has been described in detail previously (Traianedes et al., 1999, Mundy et al., 1999). The bones were removed from the calvaria of 4-5 day old ICR Swiss mice, and then cultured in BGJ medium with 0.1% BSA for 7 Days using 4 calvarial bones per group triterpenoids in differing amounts were added for 7 days. Alkaline phosphatase was determined at 4 and 7 days and expressed as arbitrary units of alkaline phosphatase activity. At the end of the experiment the media was saved and assayed for the presence of alkaline phosphatase and the calvaria bones were then fixed overnight in 10% formalin, decalcified in 14% EDTA overnight and were then embedded in paraffin wax. Sections were cut, using a standard microtome, along the midline suture to reveal the sagittal suture and the region posterior to this suture. Four micrometer sections were taken initially and at two sequential […] depths. Sections were placed on coated glass slides (Superfrost plus, Fisher Scientific, Pittsburgh, Pa.) and stained with hematoxylin and eosin. The effects on bone formation were evaluated by morphologic assessment.
Imaging. Digital images across sections of the neonatal murine calvaria were taken from each group. Histomorphometric analysis was performed on these calvarial images using the Osteomeasure System (Osteometrics Inc., Atlanta, Ga.). The total and new bone area (expressed as mm^2×10^−3) was determined on all images across the calvarial section.

heme oxygenase-1 [9] = conditions: Liby et al., 2005; cited from earlier work

## CC1(C)C(=O)C(C#N)=CC2(C)C3=CC(=O)C(C#N)=C(C#C[Si](C)(C)C)C3CCC12 (racemic) [TBE-31]
[1]
  CD11b expression in U937 cells: induces CD11b expression
[1]; comparison
  potency for CD11b induction compared with CDDO and CDDO-Im: much higher than CDDO and CDDO-Im
iNOS in RAW cells
  iNOS in RAW cells: inhibits iNOS
[2]
  proliferation of U937 human leukemia cells: inhibits proliferation
Heme oxygenase-1 [3]; comparison
  potency in heme oxygenase-1 induction compared with CDDO and CDDO-Im: much higher than CDDO and equal to CDDO-Im
Heme oxygenase-1 [3]; oral
  in vivo heme oxygenase-1 induction: orally active
[4]
  proliferation of RMPI 8226 human myeloma cells: inhibits proliferation
RAW cells
  potency for inhibition of NO production in RAW cells: extremely potent at one nanomolar concentrations
RAW cells; comparison
  potency for NO inhibition in RAW cells compared with CDDO and TP-225: much higher than CDDO and equal to TP-225
[5]
  induction of heme oxygenase-1 in U937 cells: potent inducer

## CC1(C)C(=O)C(C#N)=C[C@]2(C)C3=CC(=O)C(C#N)=C[C@]3(C)CC[C@@H]12 [(−)-TBE-9]
[6]
  activity against MCF-7 cell lines: active

## CC1(C)CC[C@]2(C(=O)O)CC[C@]3(C)[C@H](C(=O)C=C4[C@@]5(C)C=C(C#N)C(=O)C(C)(C)[C@@H]5CC[C@]43C)[C@@H]2C1 [TP-151, 2-cyano-3,12-dioxooleane-1,9(11)-dien-28-oic acid]
[7]
  SZP synthesis at lower concentrations: up-regulated SZP synthesis
  SZP synthesis at higher concentrations: down-regulated SZP synthesis in a dose-dependent manner
  SZP synthesis at higher concentrations with concurrent TGF-β1: the same trend
[8]
  alkaline phosphatase in the calvarial culture media: increases
  cartilage formation: No evidence of cartilage formation
  new bone formation: Significant increase

## COC(=O)[C@]12CCC(C)(C)C[C@H]1[C@H]1C(=O)C=C3[C@@]4(C)C=C(C#N)C(=O)C(C)(C)[C@@H]4CC[C@@]3(C)[C@]1(C)CC2 [TP-155]
[7]
  SZP synthesis at lower concentrations: up-regulated SZP synthesis
  SZP synthesis at higher concentrations: down-regulated SZP synthesis in a dose-dependent manner
  SZP synthesis at higher concentrations with concurrent TGF-β1: the same trend
[8]
  alkaline phosphatase in the calvarial culture media: increases
  cartilage formation: Some evidence of cartilage formation was seen in these cultures (FIG. 3) however this was not significant
  new bone formation: Significant increase

## CC1(C)CC[C@]2(C(=O)n3ccnc3)CC[C@]3(C)[C@H](C(=O)C=C4[C@@]5(C)C=C(C#N)C(=O)C(C)(C)[C@@H]5CC[C@]43C)[C@@H]2C1 [TP-235]
[7]
  SZP synthesis at lower concentrations: no obvious effects
  SZP synthesis at higher concentrations: down-regulated SZP synthesis in a dose-dependent manner
  SZP synthesis at higher concentrations with concurrent TGF-β1: the same trend
Heme oxygenase-1 [9]
  potency in heme oxygenase-1 induction assay (literature): highest potency amongst semi-synthetic triterpenoids
[8]
  alkaline phosphatase in the calvarial culture media: no convincing change
  cartilage formation: No evidence of cartilage formation
[8]; at 40 nM, 7 days (FIG. 7)
  new bone formation at 40 nM: Significant increase

## CCNC(=O)[C@]12CCC(C)(C)C[C@H]1[C@H]1C(=O)C=C3[C@@]4(C)C=C(C#N)C(=O)C(C)(C)[C@@H]4CC[C@@]3(C)[C@]1(C)CC2 [TP-319]
[7]
  SZP synthesis at lower concentrations: no obvious effects
  SZP synthesis at higher concentrations: down-regulated SZP synthesis in a dose-dependent manner
  SZP synthesis at higher concentrations with concurrent TGF-β1: the same trend
[8]
  alkaline phosphatase in the calvarial culture media: dose responsive increases
  cartilage formation: clear evidence increases in cartilage formation
  new bone formation: Some increases

## TGF-β1: Recombinant human TGF-β1
[7]; 0.4-120 pM
  SZP synthesis (TGF-β1): up-regulate SZP synthesis in a dose-dependent manner
